Experimental data: paper PMC10515640, “Structure-Based Optimization of Covalent, Small-Molecule Stabilizers of the 14-3-3σ/ERα Protein–Protein Interaction from Nonselective Fragments” (Journal of the American Chemical Society, 2023)
Where two headings read alike, the source gives them in different places.

Tests used:
14-3-3σ/ERα [1] = target: T1, 14-3-3σ/ERα (Homo sapiens, UniProt P03372+P31947); experiment: Mass spectrometry dose response, compound binding to 14-3-3σ in the presence of ERα phosphopeptide; details: 100 nM compound, 100 nM 14-3-3σ, ERα-peptide 2 µM
T1 construct: The 14-3-3 σ isoform (full-length for mass spectrometry and fluorescence anisotropy assays, ΔC for crystallography); made in house; host or cells: E. coli Rosetta 2(DE3)pLysS, pPROEX HTb vector
In short: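 Covalent labeling of Cys38 on 14-3-3σ was tracked by LC-MS on a Waters Acquity UPLC/Xevo G2-XS Q-Tof, with samples desalted on a Protein BEH-C4 column. Full-length wild type 14-3-3σ (100 nM) plus ERα phosphopeptide was mixed with compound in 10 mM TRIS, pH 8.0, at 50 μl per well. Percent bound was measured at several time points.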

14-3-3σ/ERα [2] = target: T1, 14-3-3σ/ERα; experiment: Fluorescence anisotropy compound titration, FAM-labeled ERα peptide; details: labeling in MS assay, peptide binding in FA assay
14-3-3σ/ERα [3] = target: T1, 14-3-3σ/ERα; experiment: as above; assay type: binding; details: for EC50: 10 nM ERα-FAM labeled peptide, 1 µM 14-3-3σ, overnight incubation (24 h)
In short: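 Compounds, serially diluted 2-fold from a top concentration of 500 or 1000 µM, were added to 10 nM FAM-labeled ERα peptide plus 1 µM 14-3-3σ in 10 mM HEPES pH 7.5, 150 mM NaCl, 0.1% Tween20, 1 mg/mL BSA (1% DMSO). Anisotropy was measured after overnight room-temperature incubation, and EC50 values were derived by four-parameter logistic fitting averaged over three independent experiments.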

14-3-3σ = target: T2, 14-3-3σ (Homo sapiens, UniProt P31947); experiment: Mass spectrometry dose response, compound binding to 14-3-3σ in the absence of peptide (apo); details: 100 nM compound, 100 nM 14-3-3σ
T2 construct: The 14-3-3 σ isoform (full-length for mass spectrometry and fluorescence anisotropy assays, ΔC for crystallography); made in house; host or cells: E. coli Rosetta 2(DE3)pLysS, pPROEX HTb vector
T2 sequence (P31947 1-248): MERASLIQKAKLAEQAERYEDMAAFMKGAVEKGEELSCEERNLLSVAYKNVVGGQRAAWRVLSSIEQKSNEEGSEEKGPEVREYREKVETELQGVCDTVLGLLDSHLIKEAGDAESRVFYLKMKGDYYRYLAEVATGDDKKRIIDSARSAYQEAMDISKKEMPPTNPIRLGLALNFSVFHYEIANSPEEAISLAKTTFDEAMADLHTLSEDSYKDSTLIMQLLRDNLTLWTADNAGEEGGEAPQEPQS
In short: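 This apo mass spectrometry assay tracked adduct formation between compounds and the native cysteine of 14-3-3σ in the absence of any peptide. Wells held 100 nM protein in 10 mM TRIS pH 8.0 with a 3-fold compound dilution series, final volume 50 μl. Injections of 6 μl were taken at 1h, 8h, 16h and 24h, and dose responses were fitted with a four-parameter variable-slope model in GraphPad Prism.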

14-3-3σ/C-RAF [4] = target: T3, 14-3-3σ/C-RAF (Homo sapiens, UniProt P31947); experiment: Mass spectrometry dose response, compound binding to 14-3-3σ in the presence of C-RAF phosphopeptide; details: 100 nM compound, 100 nM 14-3-3σ, C-RAF peptide 18 µM
T3 construct: The 14-3-3 σ isoform (full-length for mass spectrometry and fluorescence anisotropy assays, ΔC for crystallography); made in house; host or cells: E. coli Rosetta 2(DE3)pLysS, pPROEX HTb vector
T3 sequence (P31947 1-248): T2 sequence (P31947 1-248)
In short: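 Compound stocks of 50 mM in DMSO were serially diluted 3-fold to give 19-point dose responses topping out at 1 mM, then 1000 nl was transferred into 50 μl wells holding 100 nM full-length wild type 14-3-3σ plus C-RAF phosphopeptide. Mass spectrometry measured percent compound bound to Cys38, with curves fitted in GraphPad Prism using a four-parameter variable-slope model.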

14-3-3σ/C-RAF [5] = target: T3, 14-3-3σ/C-RAF; experiment: Fluorescence anisotropy compound titration, FAM-labeled C-RAF peptide; assay type: binding; details: for stabilization of 14-3-3σ/C-RAF (in words): MS and FA assays, abstract: up to 150 μM compound
14-3-3σ/ERα [6] = target: T1, 14-3-3σ/ERα; experiment: Fluorescence anisotropy protein titration, FAM-labeled ERα peptide; assay type: binding; details: 10 nM FAM-ERα peptide; for X Fold stabilization (100 µM compound) of 14-3-3σ/ERα: versus DMSO reference; for Kd: 100 µM compound, overnight incubation
Description: To evaluate compound-mediated stabilization of the 14-3-3σ/ERα complex directly, FA protein titrations were performed at a saturating concentration of compound. FA protein titrations allowed the quantification of the cooperative effect by comparing the apparent dissociation constants (appKD) of the binary and ternary complexes. 14-3-3σ was titrated into 10 nM FAM-labeled ERα peptide in the presence of DMSO or 100 μM of the compounds (Table S4). […]
diluted in buffer (10 mM HEPES, pH 7.5, 150 mM NaCl, 0.1% Tween20, 1 mg/mL Bovine Serum Albumin (BSA; Sigma-Aldrich). Final DMSO in the assay was always 1%. […]
Protein titrations were made by titrating 14-3-3σ in a 2-fold dilution series (starting at 300 µM) to a mix of fluorescein-labeled peptide (10 nM) and DMSO or compound (100 µM). Fluorescence anisotropy measurements were performed after overnight incubation at room temperature. […]
Wells containing only FAM-peptide were used to set as G-factor at 35 mP. Data reported are at endpoint. EC50 and apparent Kd values were obtained from fitting the data with a four-parameter logistic model (4PL) in GraphPad Prism 7 for Windows. Data was obtained and averaged based on either three (compound titrations) or two (protein titrations) independent experiments.

14-3-3σ/C-RAF [7] = target: T3, 14-3-3σ/C-RAF; experiment: Fluorescence anisotropy compound titration, FAM-labeled C-RAF peptide; assay type: binding; details: 10 nM C-RAF-FAM labeled peptide, 5 µM 14-3-3σ, overnight incubation; read-out: EC50 value C-RAF (FA compound titration)
In short: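 Peptide-binding stabilization was followed by fluorescence anisotropy. A mix of 5 µM 14-3-3σ and 10 nM FAM-labeled C-RAF peptide received 2-fold serial dilutions of compound starting at 500 or 1000 µM. The buffer was 10 mM HEPES pH 7.5, 150 mM NaCl, 0.1% Tween20 and 1 mg/mL BSA. Anisotropy was read after incubating overnight at room temperature. A four-parameter logistic fit in GraphPad Prism 7 gave EC50 values averaged from three experiments.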

[8] = read-out: EC50 value ERα (FA compound titration)

Row | SMILES | Percentage (%) bound of compound to 14-3-3σ, ERα 1h (14-3-3σ/ERα [1]) [%] | Percentage (%) bound of compound to 14-3-3σ, ERα 8h (14-3-3σ/ERα [1]) [%] | Percentage (%) bound of compound to 14-3-3σ, ERα 16h (14-3-3σ/ERα [1]) [%] | Percentage (%) bound of compound to 14-3-3σ, ERα 24h (14-3-3σ/ERα [1]) [%] | EC50 (14-3-3σ/ERα [3]; [8]) [µM] | Percentage (%) bound of compound to 14-3-3σ, APO 1h (14-3-3σ) [%] | Percentage (%) bound of compound to 14-3-3σ, APO 8h (14-3-3σ) [%] | Percentage (%) bound of compound to 14-3-3σ, APO 16h (14-3-3σ) [%] | Percentage (%) bound of compound to 14-3-3σ, APO 24h (14-3-3σ) [%] | Percentage (%) bound of compound to 14-3-3σ, CRAF 1h (14-3-3σ/C-RAF [4]) [%] | Percentage (%) bound of compound to 14-3-3σ, CRAF 8h (14-3-3σ/C-RAF [4]) [%] | Percentage (%) bound of compound to 14-3-3σ, CRAF 24h (14-3-3σ/C-RAF [4]; 24h) [%] | Percentage (%) bound of compound to 14-3-3σ, CRAF 24h (14-3-3σ/C-RAF [4]; head prints 24h) [%] | X Fold stabilization (100 µM compound) of 14-3-3σ/ERα (14-3-3σ/ERα [6]) [fold] | Kd (14-3-3σ/ERα [6]) [µM] | stabilization of 14-3-3σ/C-RAF (in words) (14-3-3σ/C-RAF [5]) | EC50 (14-3-3σ/C-RAF [7]) [µM] | also measured
1 | CC(C)(Nc1ccccc1)C(=O)N1CCC(CNC(=O)CCl)CC1 [compound 85] | 0.9 | 1.2 | 1.5 | 1.5 | > 150 | 0 | 0 | 0 | 0 | 0.9 | 1.2 | 1.5 | 1.5 |  |  |  |  | activity in MS and FA assays (in words) (14-3-3σ/ERα [2]): inactive
2 | O=C(CCl)NCC1CCN(C(=O)C2(Nc3ccc(Cl)cc3)CCCC2)CC1 [compound 118] | 11.2 | 24.1 | 60.1 | 96.6 |  | 0 | 0 | 0.8 | 13.0 | 2.9 | 3.4 | 23.7 | 11.5 |  |  |  |  | EC50 (14-3-3σ/ERα [3]; EC50 value ERα (FA compound titration)): 5 ± 0.4 µM; selectivity for ERα (over C-RAF, FA EC50) (14-3-3σ/ERα [3]; FA compound titrations): greater than 30 fold; EC50 (14-3-3σ/C-RAF [5]; EC50 value C-RAF (FA compound titration), 10 nM C-RAF-FAM labeled peptide, 5 µM 14-3-3σ, overnight incubation): > 150 µM
3 | O=C(CCl)NCC1CCN(C(=O)C2(Nc3ccc(Cl)cc3)CCNCC2)CC1 [compound 131] | 54.4 | 82.2 | 94.0 | 98.3 | 2 ± 0.3 | 1.4 | 2.2 | 5.8 | 14.1 | 2.0 | 2.4 | 12.5 | 4.6 | 30 | 0.049 | no stabilization | > 150 | 
4 | NC1CCC(Nc2ccc(Cl)cc2)(C(=O)N2CCC(CNC(=O)CCl)CC2)CC1 (centres unmarked) [compound 137] | 36.3 | 60.4 | 90.0 | 96.4 | 8 ± 1 | 1.4 | 1.9 | 3.2 | 9.3 | 1.7 | 3.6 | 10.4 | 6.6 |  |  | no stabilization | > 150 | 
5 | CC1CC(Nc2ccc(Cl)cc2)(C(=O)NCC2CC3(CCN(C(=O)CCl)CC3)C2)CC(C)O1 (centres unmarked) [compound 180] | 40.8 | 50.1 | 84.4 | 96.1 | 10 ± 2 | 1.4 | 2.9 | 7.3 | 11.5 | 0 | 2.5 | 8.5 | 4.5 | 7 | 0.192 |  | > 150 | 
